Columns and labels:
[1] = test system: Wnt activity (Sp5-Luc reporter, SW480 colon carcinoma cells); test: Screening assay for Wnt activity: Sp5-Luc reporter gene assay in SW480 cells; assay type: cell-based; conditions: Homo sapiens, 42 h incubation, luminescence
Summary of the method: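 IC50 values come from variable-slope four-parameter fits of luciferase signal normalized to DMSO wells. Stable Sp5-Luc reporter SW480 colon carcinoma cells were exposed to compounds in a 3-fold dilution series (source plates from 10 mM stock) for forty-two hours at 37 °C.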

[2] = test system: primary human fibroblasts derived from IPF patients (LL29 cells); test: Inhibition of fibrosis: TGF-β1-treated primary human fibroblasts from IPF patients (LL29), αSMA staining; assay type: cell-based; conditions: Fibroblast, 96 h, TGF-β1 20 ng/mL, 4 days, % αSMA-positive cells
Summary of the method: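 […] (0.1% DMSO) on LL29 cells in F12 with 1% FBS, with TGF-β1 (20 ng/mL) added 1 h after plating; 4 days at 37 °C. SYTOX-positive dead cells were excluded and the % αSMA-positive cells was imaged, normalized to TGF-β1/DMSO wells, triplicates; EC50 by non-linear regression.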

IC50 [1] [nM] | SMILES | EC50 [2] [nM]
32 | CS(=O)(=O)NCc1cc(F)cc(-c2nccc3[nH]c(-c4n[nH]c5ccc(-c6cncc(NC(=O)c7ccccc7)c6)cc45)nc23)c1 [Compound 401, N-(5-(3-(4-(3-Fluoro-5-(methylsulfonamidomethyl)phenyl)-1H-imidazo[4,5-c]pyridin-2-yl)-1H-indazol-5-yl)pyridin-3-yl)benzamide] | 9990
6 | Oc1cncc(-c2ccc3[nH]nc(-c4nc5c(-c6cccc(F)c6)nccc5[nH]4)c3c2)c1 [Compound 1781, 5-(3-(4-(3-Fluorophenyl)-1H-imidazo[4,5-c]pyridin-2-yl)-1H-indazol-5-yl)pyridin-3-ol] | 79
192 | CN(C)CCOc1cncc(-c2ccc3[nH]nc(-c4nc5c(-c6cccc(F)c6)nccc5[nH]4)c3c2)c1 [Compound 1779, 2-((5-(3-(4-(3-Fluorophenyl)-1H-imidazo[4,5-c]pyridin-2-yl)-1H-indazol-5-yl)pyridin-3-yl)oxy)-N,N-dimethylethan-1-amine] | 41
47 | c1ccc(CNCc2cncc(-c3ccc4[nH]nc(-c5nc6c(-c7cccnc7)nccc6[nH]5)c4c3)c2)cc1 [Compound 101, N-Benzyl-1-(5-(3-(4-(pyridin-3-yl)-1H-imidazo[4,5-c]pyridin-2-yl)-1H-indazol-5-yl)pyridin-3-yl)methanamine] | 2430
124 | CN(C)CC(=O)Nc1cncc(-c2ccc3[nH]nc(-c4nc5c(-c6cccc(F)c6)nccc5[nH]4)c3c2)c1 [Compound 2251, 2-(Dimethylamino)-N-(5-(3-(4-(3-fluorophenyl)-1H-imidazo[4,5-c]pyridin-2-yl)-1H-indazol-5-yl)pyridin-3-yl)acetamide] | 75
108 | CCNCc1cncc(-c2ccc3[nH]nc(-c4nc5c(-c6cc(F)cc(NCCN(C)C)c6)nccc5[nH]4)c3c2)c1 [Compound 422, N^1-(3-(2-(5-(5-((Ethylamino)methyl)pyridin-3-yl)-1H-indazol-3-yl)-1H-imidazo[4,5-c]pyridin-4-yl)-5-fluorophenyl)-N^2,N^2-dimethylethane-1,2-diamine] | 108
4020 | CN(C)Cc1cncc(-c2ccc3[nH]nc(-c4nc5c(N6CCCCC6)nccc5[nH]4)c3c2)c1 [Compound 169, N,N-Dimethyl-1-(5-(3-(4-(piperidin-1-yl)-1H-imidazo[4,5-c]pyridin-2-yl)-1H-indazol-5-yl)pyridin-3-yl)methanamine] | 171
61 | c1ccc(-c2nccc3[nH]c(-c4n[nH]c5ccc(-c6cncc(CNCC7CCCC7)c6)cc45)nc23)nc1 [Compound 154, 1-Cyclopentyl-N-((5-(3-(4-(pyridin-2-yl)-1H-imidazo[4,5-c]pyridin-2-yl)-1H-indazol-5-yl)pyridin-3-yl)methyl)methanamine] | 61
5 | CC(C)C(=O)Nc1cncc(-c2ccc3[nH]nc(-c4nc5c(-c6ccccc6F)nccc5[nH]4)c3c2)c1 [Compound 61, N-(5-(3-(4-(2-Fluorophenyl)-1H-imidazo[4,5-c]pyridin-2-yl)-1H-indazol-5-yl)pyridin-3-yl)isobutyramide] | 79
> 10000 | Fc1cccc(-c2nccc3[nH]c(-c4n[nH]c5ccc(-c6ccncc6)cc45)nc23)c1 [Compound 1784, 4-(3-Fluorophenyl)-2-(5-(pyridin-4-yl)-1H-indazol-3-yl)-1H-imidazo[4,5-c]pyridine] | 9990
844 | Cc1ccc(-c2nccc3[nH]c(-c4n[nH]c5ccc(-c6cncc(CN7CCCCC7)c6)cc45)nc23)s1 [Compound 353, 4-(5-Methylthiophen-2-yl)-2-(5-(5-(piperidin-1-ylmethyl)pyridin-3-yl)-1H-indazol-3-yl)-1H-imidazo[4,5-c]pyridine] | 9
2 | Cc1cn(-c2nccc3[nH]c(-c4n[nH]c5ccc(-c6cncc(NC(=O)CC(C)C)c6)cc45)nc23)cn1 [Compound 184, 3-Methyl-N-(5-(3-(4-(4-methyl-1H-imidazol-1-yl)-1H-imidazo[4,5-c]pyridin-2-yl)-1H-indazol-5-yl)pyridin-3-yl)butanamide] | 49
59.4 | O=C(Nc1cncc(-c2ccc3[nH]nc(-c4nc5c(-c6ccsc6)nccc5[nH]4)c3c2)c1)C1CCCC1 [Compound 255, N-(5-(3-(4-(Thiophen-3-yl)-1H-imidazo[4,5-c]pyridin-2-yl)-1H-indazol-5-yl)pyridin-3-yl)cyclopentanecarboxamide] | 1220
4.1 | Nc1cncc(-c2ccc3[nH]nc(-c4nc5c(-c6ccccc6F)nccc5[nH]4)c3c2)c1 [Compound 55, 5-(3-(4-(2-Fluorophenyl)-1H-imidazo[4,5-c]pyridin-2-yl)-1H-indazol-5-yl)pyridin-3-amine] | 17
< 1 | CC(=O)c1ccc(-c2nccc3[nH]c(-c4n[nH]c5ccc(-c6cccnc6)cc45)nc23)s1 [Compound 368, 1-(5-(2-(5-(Pyridin-3-yl)-1H-indazol-3-yl)-1H-imidazo[4,5-c]pyridin-4-yl)thiophen-2-yl)ethan-1-one] | 14
15 | CCCCC(=O)Nc1cncc(-c2ccc3[nH]nc(-c4nc5c(-c6ccoc6)nccc5[nH]4)c3c2)c1 [Compound 278, N-(5-(3-(4-(Furan-3-yl)-1H-imidazo[4,5-c]pyridin-2-yl)-1H-indazol-5-yl)pyridin-3-yl)pentanamide] | 291
4 | CN(C)c1cncc(-c2ccc3[nH]nc(-c4nc5c(-c6cccc(F)c6)nccc5[nH]4)c3c2)c1 [Compound 7, 5-(3-(4-(3-Fluorophenyl)-1H-imidazo[4,5-c]pyridin-2-yl)-1H-indazol-5-yl)-N,N-dimethylpyridin-3-amine] | 9
1 | CCC(=O)Nc1cncc(-c2ccc3[nH]nc(-c4nc5c(-c6cccc(F)c6)nccc5[nH]4)c3c2)c1 [Compound 1, N-(5-(3-(4-(3-Fluorophenyl)-1H-imidazo[4,5-c]pyridin-2-yl)-1H-indazol-5-yl)pyridin-3-yl)propionamide] | 20
< 1 | CC(C)Nc1cncc(-c2ccc3[nH]nc(-c4nc5c(-c6ccoc6)nccc5[nH]4)c3c2)c1 [Compound 272, 5-(3-(4-(Furan-3-yl)-1H-imidazo[4,5-c]pyridin-2-yl)-1H-indazol-5-yl)-N-isopropylpyridin-3-amine] | 9
778 | Fc1cccc(-c2nccc3[nH]c(-c4n[nH]c5ccc(-c6cncc(OC7CCNCC7)c6)cc45)nc23)c1 [Compound 1776, 4-(3-Fluorophenyl)-2-(5-(5-(piperidin-4-yloxy)pyridin-3-yl)-1H-indazol-3-yl)-1H-imidazo[4,5-c]pyridine] | 38
3 | CN(C)c1cncc(-c2ccc3[nH]nc(-c4nc5c(N6CCCCC6)nccc5[nH]4)c3c2)c1 [Compound 163, N,N-Dimethyl-5-(3-(4-(piperidin-1-yl)-1H-imidazo[4,5-c]pyridin-2-yl)-1H-indazol-5-yl)pyridin-3-amine] | 1550
9 | Cc1ccc(-c2nccc3[nH]c(-c4n[nH]c5ccc(-c6cncc(NC(=O)C7CCC7)c6)cc45)nc23)s1 [Compound 358, N-(5-(3-(4-(5-Methylthiophen-2-yl)-1H-imidazo[4,5-c]pyridin-2-yl)-1H-indazol-5-yl)pyridin-3-yl)cyclobutanecarboxamide] | 21
67 | FC1(F)CCN(Cc2cncc(-c3ccc4[nH]nc(-c5nc6c(N7CCCCC7)nccc6[nH]5)c4c3)c2)C1 [Compound 181, 2-(5-(5-((3,3-Difluoropyrrolidin-1-yl)methyl)pyridin-3-yl)-1H-indazol-3-yl)-4-(piperidin-1-yl)-1H-imidazo[4,5-c]pyridine] | 80.5
278 | O=C(Nc1cncc(-c2ccc3[nH]nc(-c4nc5c(N6CCCCC6)nccc5[nH]4)c3c2)c1)C1CC1 [Compound 175, N-(5-(3-(4-(Piperidin-1-yl)-1H-imidazo[4,5-c]pyridin-2-yl)-1H-indazol-5-yl)pyridin-3-yl)cyclopropanecarboxamide] | 115
7 | Cc1ccc(-c2nccc3[nH]c(-c4n[nH]c5ccc(-c6cncc(NC(=O)C(C)C)c6)cc45)nc23)s1 [Compound 347, N-(5-(3-(4-(5-Methylthiophen-2-yl)-1H-imidazo[4,5-c]pyridin-2-yl)-1H-indazol-5-yl)pyridin-3-yl)isobutyramide] | 38
318 | c1cncc(-c2nccc3[nH]c(-c4n[nH]c5ccc(-c6cncc(CN7CCCCC7)c6)cc45)nc23)c1 [Compound 93, 2-(5-(5-(Piperidin-1-ylmethyl)pyridin-3-yl)-1H-indazol-3-yl)-4-(pyridin-3-yl)-1H-imidazo[4,5-c]pyridine] | 388
27.9 | O=C(Nc1cncc(-c2ccc3[nH]nc(-c4nc5c(-c6ccoc6)nccc5[nH]4)c3c2)c1)C1CCC1 [Compound 280, N-(5-(3-(4-(Furan-3-yl)-1H-imidazo[4,5-c]pyridin-2-yl)-1H-indazol-5-yl)pyridin-3-yl)cyclobutanecarboxamide] | 1240
2340 | Fc1cccc(-c2nccc3[nH]c(-c4n[nH]c5ccc(C6CCNCC6)cc45)nc23)c1 [Compound 1769, 4-(3-Fluorophenyl)-2-(5-(piperidin-4-yl)-1H-indazol-3-yl)-1H-imidazo[4,5-c]pyridine] | 670

Reference: patent publication US10081631B2, “2-(1H-indazol-3-yl)-1H-imidazo[4,5-C]pyridine and therapeutic uses thereof” (Samumed, LLC, priority 2014, dated 2018)
